Data from US20050085528A1 (priority 2003, published 2005).

Columns and labels:
[1] = in vitro; conditions: replicon cells (lucubineo cells)
[2] = tested on: Replicon cells; experiment: cells; conditions: read-out: Cytostatic (IC50)
[3] = tested on: HCV replicon (Huh 5-2 [I389luc-ubi-neo-NS3-3′/5.1]); experiment: microbe, parasite or virus in culture; type: cell-based; conditions: for IC50: Hepatitis C virus, Huh-5-2, luciferase, 72 hours statin treatment; for Inhibition of luciferase expression in replicon cells (in words): FIG. 2
[4] = 6- to 12-month course; cited from earlier work
[5] = tested on: HCV replicon RNA; experiment: Quantitative RT-PCR (Taqman) of replicon RNA; type: cell-based; conditions: FIG. 2A
Protocol: Statin-treated cells in the duplicate clear plate were analysed for cytotoxicity by addition of 10 μL WST-1 reagent (Roche Biosciences) to each well and incubated for 37° C. for 60 minutes. After vigorous shaking, the plate was read at 450 nm. The supernatent was removed and the monolayer washed with PBS prior to addition 100 μL RLT lysis buffer (Qiagen RNAeasy kit) to each test well, followed by vigorous resuspension to ensure uniform lysis of all cells. Total RNA was extracted according to Qiagen RNAeasy protocols recommended by manufacturer. Briefly, 0.1 μg total RNA was reverse transcribed using random hexamers and 20% cDNA produced was used as a template in a Taqman reaction (Universal PCR Master Mix protocol p\n 43044449 Rev B).
These procedures are described in Perkin Elmer Biosystems User Bulletin 2. Briefly, the quantity of replicon RNA in a given sample was determined relative to the untreated control and normalised with respect to actin. Having established that the efficiencies of the replicon and actin PCR reactions were similar (data not shown), the relative quantity of replicon RNA was described by 2^−ΔΔCt where, ΔΔCt=ΔCt(test)−ΔCt(control) ΔCt(test)[…]−Ct(actin) and ΔCt(control)=Ct(control)−Ct(actin) Cholesterol Biosynthesis Assay

[6] = tested on: Replicon cells
[7] = tested on: Replicon cells; conditions: @ 10 μM
[8] = tested on: EMCV IRES; experiment: Green fluorescent protein assay (pIRES2-EGFP); type: cell-based, Encephalomyocarditis virus; conditions: atorvastatin concentrations which reduced HCV replicon activity (10 uM, FIG. 5)
Protocol: Replicon cells were electroporated in cytomix buffer at 10^7 cells/mL at 960 uF, 270 V with varying amounts pIRES2-EGFP. Cell viability was monitored by trypan blue staining and cell counting. Aliquots of cells (2×10^4) were plated out in clear bottomed black 96 well plates and incubated for 24 hours. The cells were rinsed with PBS and fluorescence output read using an Analyst HT (LJL Biosystems).
Impairment of this function was examined in the presence of statins. Replicon cells were transfected with varying amounts of pIRES2-EGFP in which the green fluorescent protein reporter is expressed by a EMCV IRES.

Q: What does the source list for CCC(C)(C)C(=O)O[C@H]1C[C@@H](C)C=C2C=C[C@H](C)[C@H](CC[C@@H]3C[C@@H](O)CC(=O)O3)[C@H]21 [Simvastatin]?
A: IC50 at 72 h [1]: 64.7 µM; IC50 [2]: 28 µM

Q: For C[C@@](O)(CCO)CC(=O)O [MVA, mevalonic acid], which “Rescue of atorvastatin inhibition of HCV replicon activity by MVA” value ([3]; 14 μM MVA, 10 uM atorvastatin, FIG. 3A) is on record?
A: begins to alleviate the atorvastatin inhibition

Q: What about the “Response of control HCV replicon cells to MVA” value ([3]; absence of statin, FIG. 3B) of the same compound?
A: do not respond

Q: What about the “Rescue of atorvastatin inhibition of HCV replicon activity by MVA” value ([3]; further addition of MVA, 10 μM atorvastatin) of the same compound?
A: completely restores replicon activity

Q: For Alpha interferon, which “Patients in whom an autoimmune condition is triggered” value [4] is on record?
A: about 2%

Q: Which IC50 at 72 h [1] does the source give for COCc1c(C(C)C)nc(C(C)C)c(/C=C/[C@@H](O)C[C@@H](O)CC(=O)O)c1-c1ccc(F)cc1 [Cerivastatin] here?
A: 4.9 µM

Q: And the IC50 [2]?
A: 5.5 µM

Q: And the IC50 [3]?
A: 1.1 µM

Q: With CC[C@H](C)C(=O)O[C@H]1C[C@@H](C)C=C2C=C[C@H](C)[C@H](CC[C@@H]3C[C@@H](O)CC(=O)O3)[C@H]21 [Lovastatin] as the compound, how does the “Replicon RNA by RT-PCR, normalised to beta actin” value [5] read?
A: quantitative reduction of replicon RNA

Q: And the IC50 at 72 h [1]?
A: 158 µM

Q: And the IC50 [2]?
A: 89.3 µM

Q: What about the “Inhibition of luciferase expression in replicon cells (in words)” value [3] of the same compound?
A: dose dependent inhibition

Q: And the IC50 [3]?
A: 7.9 µM

Q: With CC[C@H](C)C(=O)O[C@H]1C[C@H](O)C=C2C=C[C@H](C)[C@H](CC[C@@H](O)C[C@@H](O)CC(=O)O)[C@H]21 [Pravastatin] as the compound, how does the “Cytostatic, % at one concentration” value [6] read?
A: 25% @ 500,000 μM

Q: What about the IC50 [3] of the same compound?
A: 322 µM

Q: With CC(C)c1c(C(=O)Nc2ccccc2)c(-c2ccccc2)c(-c2ccc(F)cc2)n1CC[C@@H](O)C[C@@H](O)CC(=O)O (relative stereo) [Atorvastatin, [R-(R*,R*)]-2-(4-fluorophenyl)-b,d-dihydroxy-5-(1-methylethyl)-3-phenyl-4[(phenylamino)carbonyl]-IH-pyrrole-1-heptanoic acid] as the compound, how does the IC50 [2] read?
A: 2.5 µM

Q: And the “Inhibition of luciferase expression in replicon cells (in words)” value [3]?
A: increased antiviral activity compared to lovastatin

Q: And the IC50 [3]?
A: 4.1 µM

Q: And the “Cytotoxicity, % at one concentration” value [7]?
A: 18.3% @ 10 μM

Q: What about the “Effect on GFP signal driven by EMCV IRES” value [8] of the same compound?
A: no effect
